US20160158317A1, “Antimicrobial Peptide Variants and Polynucleotides Encoding Same” (Adenium Biotech A/S, priority 2010, published 2016)
Where “and” joins values, the source holds several entries; their conditions need not be identical. Equal values may be shown once. Marks after values point to notes of the source that are not given here.

Tested on: Escherichia coli AID#172
Experiment: Peritonitis/sepsis model in neutropenic NMRI mice, effect over time of 7.5 mg/kg (Example 3)
Format: in vivo
Set-up: key to Score T = 0 hour / Score T = 5 hours / Score T = 2 hours: Score 0: Healthy.; Score 1: Minor clinical signs of infection and inflammation e.g. observations of minor signs of distress or changed activity.; Score 2: Clear signs of infection like, social withdrawal, lack of curiosity, changed body position, piloerection, or changes in pattern of movement.; Score 3: Severe signs of infection like stiff movements, lack of curiosity, changed body position, piloerection, pain, or changes in pattern of movement.; Score 4: Severe pain and the mouse was sacrificed immediately to minimize the suffering of the animal.; Score 5: The mouse was dead
Conditions: for CFU levels compared to vehicle: peritoneal fluid at 2 and 5 hours, blood at 5 hours, p<0.01; for difference in CFU levels compared to vehicle treatment, blood / difference in CFU levels compared to vehicle treatment, peritoneum: single i.v. dose (NZ17074 7.5 mg/kg, Meropenem 40 mg/kg); for Score T = 0 hour: score at start of treatment; for log10 CFU Mean Blood / log10 CFU mean PF: group mean; for log10 CFU mean PF / log10 CFU PF: peritoneal fluid
Protocol: The purpose of this study was to investigate the in vivo efficacy of NZ17074 following intravenous (i.v.) administration of a single dose of 7.5 mg/kg. The effect was tested against Escherichia coli AID#172 in the peritonitis model in neutropenic NMRI mice to avoid the use of mucin as normally applied in the murine peritonitis model. The mice were rendered neutropenic by cyclophosphamide injections. Treatment with 40 mg/kg meropenem was included as a positive control group and treatment with vehicle was included as a negative control group. The colony counts in peritoneal fluid and blood were determined at 2 and 5 hours after treatment.
• 30 outbred, NMRI female mice, 28-32 grams (Harlan Scandinavia) • Escherichia coli AID#172 from Statens Serum Institute, Copenhagen, Denmark. Clinical isolate from a human wound from 2003. Multiresistant (Ampicillin, Ceftazidime, Aztreonam, Gentamicin, Ciprofloxacin) • NZ17074 in Ringer Acetate pH 6, 1.2 ml 0.75 mg/ml. […] Lot no. 09466C Date of expiration: 08-2013 • APODAN®(A-Pharma, 1 g cyclophosphamide) Batch nr. 928491 • Date of expiration: May 2012 • Water, sterile • 0.9% saline, sterile • 5% Horse Blood Agar plates • Lactose bromthymol blue agar plates
The mice were rendered neutropenic by injecting 0.5 ml cyclophosphamide solution intraperitoneally 4 days (200 mg/kg) and 1 day (100 mg/kg) prior to inoculation.
Fresh overnight E. coli AID#172 colonies from a 5% Horse Blood Agar plate were suspended and diluted in sterile saline to approximately 2×10^6CFU/ml.
One hour before start of treatment (time −1 hour) mice were inoculated intraperitoneally with 0.5 ml of the E. coli suspension in the lateral lower quadrant of the abdomen.
The mice were clinically scored for signs of infection at the time of each sampling. • Score 0: Healthy. • Score 1: Minor clinical signs of infection and inflammation e.g. observations of minor signs of distress or changed activity. • Score 2: Clear signs of infection like, social withdrawal, lack of curiosity, changed body position, piloerection, or changes in pattern of movement. • Score 3: Severe signs of infection like stiff movements, lack of curiosity, forced ventilation, changed body position, piloerection, pain, or changes in pattern o movement. • Score 4: Severe pain and the mouse was sacrificed immediately to minimize the suffering of the animal. • Score 5: The mouse was dead.
The mice were treated i.v. in the lateral tail vein over approximately 30 seconds with a single dose of NZ17074, meropenem or vehicle at time 0 hour (see Table 1). The dosing was based on a mean weight of 30 g. Mice that weighed 28-32 g received 0.30 ml solution. Mice that weighed 27-28 g received 0.25 ml solution and mice that weighed 32.1-36 g received 0.35 ml solution. Mouse 17 accidently received 0.35 ml although it weighed 29.5 g.
Colony counts were determined from blood and peritoneal fluid at 0, 2 and 5 hours after treatment according to Table 1.
The mice were anesthetized with O2+CO2 and blood was collected by axilliary cut down. The mice were sacrificed by cervical dislocation and a total of 2 ml sterile saline was injected i.p. and the abdomen gently massaged before it was opened and fluid sampled with a pipette. Each sample was 10 fold diluted in saline and 20-microliter spots were applied on blood agar plates. All agar plates were incubated 18-22 hours at 35° C. in ambient air.
The CFU numbers are log10 transformed before performing calculations to obtain a normal distribution.

[1] = Meropenem 40 mg/kg single dose, sampling T = 2, individual mice
[2] = Meropenem 40 mg/kg single dose, sampling T = 5, p < 0.01 vs vehicle
[3] = Meropenem 40 mg/kg single dose, sampling T = 5, individual mice
[4] = Meropenem 40 mg/kg single dose, individual mice

Structure (SMILES): C[C@@H](O)[C@H]1C(=O)N2C(C(=O)O)=C(S[C@@H]3CN[C@H](C(=O)N(C)C)C3)[C@H](C)[C@H]12 [meropenem]
- CFU levels compared to vehicle, blood (40 mg/kg i.v., 2 hours after treatment): lack of significance
- CFU levels compared to vehicle (40 mg/kg i.v.): significantly (p<0.01) reduced CFU levels
- CFU levels compared to vehicle (40 mg/kg i.v., listed as Meropenem): significant reduction
- difference in CFU levels compared to vehicle treatment, blood (2 hours): blood −0.82 log log cfu/ml
- difference in CFU levels compared to vehicle treatment, peritoneum (2 hours): 2 hours: peritoneum −1.51 log cfu/ml
- difference in CFU levels compared to vehicle treatment, blood (5 hours): blood −1.64 log log cfu/ml
- difference in CFU levels compared to vehicle treatment, peritoneum (5 hours): 5 hours: peritoneum −1.51 log cfu/ml
- Score T = 0 hour (Meropenem 40 mg/kg single dose, group sampled T = 2, individual mice): 0
- Score T = 0 hour (Meropenem 40 mg/kg single dose, group sampled T = 5, individual mice): 0
- log10 CFU Mean Blood (Meropenem 40 mg/kg single dose, sampling T = 2, not significant vs vehicle): 3.76 log10 CFU
- log10 CFU Blood [1]: 3.60 log10 CFU and 3.57 log10 CFU and 4.11 log10 CFU
- log10 CFU Mean Blood [2]: 3.10** log10 CFU
- log10 CFU Blood [3]: 3.20 log10 CFU and 2.85 log10 CFU and 3.26 log10 CFU
- Score T = 2 hours [4]: 1
- Score T = 5 hours [4]: 0
- log10 CFU mean PF (Meropenem 40 mg/kg single dose, sampling T = 2, p < 0.01 vs vehicle): 3.92** log10 CFU
- log10 CFU PF [1]: 4.12 log10 CFU and 3.40 log10 CFU and 4.24 log10 CFU
- log10 CFU mean PF [2]: 4.21** log10 CFU
- log10 CFU PF [3]: 4.38 log10 CFU and 4.00 log10 CFU and 4.26 log10 CFU
